US11806339B2, “Combination therapy of Axl inhibitor and EGFR tyrosine kinase inhibitor” (Daiichi Sankyo Company, Limited, priority 2017, dated 2023)
Counter-ions that a name gives are not always drawn.

Legend:
HCC827 cells = assay: In vivo effect of combined use of Compound A and osimertinib on subcutaneously transplanted HCC827 tumors (estimated tumor volume); set-up: species or system nude mouse;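 also: subcutaneous xenografts in female nude mice, tumor axes measured by caliper over time, volume as major axis × minor axis²/2, dosing from Day 1 five days weekly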
Procedure: (§1) 0.1 mL of the prepared cell suspension was subcutaneously transplanted to each nude mouse (female, 5 weeks old). […] The administration was started on the day (Day 1) following the grouping date and carried out five times a week (Saturday and Sunday were set to drug holidays). […] The major axis (mm) and minor axis (mm) of each tumor were measured over time using an electronic digital caliper. The estimated tumor volume was calculated according to the expression (1) given below, and plotted. Also, the body weight was measured over time using an automatic balance for small animals. The rate of change in body weight (Change in body weight (%)) was calculated according to the expression (2) given below. […] Estimated tumor volume (mm^3)=Mean estimated tumor volume of individuals per group (1) Estimated tumor volume of each individual=An×Bn^2/2
An: Major axis of the tumor at Day n
(§2) Bn: Minor axis of the tumor at Day n Change in body weight (%)=Mean rate of change in body weights of individuals per group (2) Rate of change in body weight of each individual=(1−BWn/BWs)×100

[1] = Change in body weight and general symptoms in HCC827 tumor-bearing mice
Procedure: as §1, §2
BWn: Body weight at Day n
BWs: Body weight at the initial day of administration

[2] = Day 0, Compound A 12.5 mg/kg, bid
[3] = Day 0, Compound A 25 mg/kg, bid
[4] = Day 0, Compound A 50 mg/kg, bid
[5] = Day 4, Compound A 12.5 mg/kg, bid
[6] = Day 4, Compound A 25 mg/kg, bid
[7] = Day 4, Compound A 50 mg/kg, bid
[8] = Day 7, Compound A 12.5 mg/kg, bid
[9] = Day 7, Compound A 25 mg/kg, bid
[10] = Day 7, Compound A 50 mg/kg, bid
[11] = Day 11, Compound A 12.5 mg/kg, bid
[12] = Day 11, Compound A 25 mg/kg, bid
[13] = Day 11, Compound A 50 mg/kg, bid
[14] = Day 14, Compound A 12.5 mg/kg, bid
[15] = Day 14, Compound A 25 mg/kg, bid
[16] = Day 14, Compound A 50 mg/kg, bid
[17] = Day 18, Compound A 12.5 mg/kg, bid
[18] = Day 18, Compound A 25 mg/kg, bid
[19] = Day 18, Compound A 50 mg/kg, bid
[20] = Day 21, Compound A 12.5 mg/kg, bid
[21] = Day 21, Compound A 25 mg/kg, bid
[22] = Day 21, Compound A 50 mg/kg, bid
[23] = Day 25, Compound A 12.5 mg/kg, bid
[24] = Day 25, Compound A 25 mg/kg, bid
[25] = Day 25, Compound A 50 mg/kg, bid
[26] = Day 28, Compound A 25 mg/kg, bid
[27] = Day 11, osimertinib 3 mg/kg, qd
[28] = Day 14, osimertinib 3 mg/kg, qd
[29] = Day 18, osimertinib 3 mg/kg, qd
[30] = Day 21, osimertinib 3 mg/kg, qd
[31] = Day 25, osimertinib 3 mg/kg, qd
[32] = Day 28, osimertinib 3 mg/kg, qd
[33] = Day 32, osimertinib 3 mg/kg, qd
[34] = Day 35, osimertinib 3 mg/kg, qd
[35] = Day 39, osimertinib 3 mg/kg, qd
[36] = Day 46, osimertinib 3 mg/kg, qd
[37] = Day 49, osimertinib 3 mg/kg, qd
[38] = Day 53, osimertinib 3 mg/kg, qd
[39] = Day 56, osimertinib 3 mg/kg, qd
[40] = Day 60, osimertinib 3 mg/kg, qd
[41] = Day 63, osimertinib 3 mg/kg, qd
[42] = Day 67, osimertinib 3 mg/kg, qd
[43] = Day 74, osimertinib 3 mg/kg, qd
[44] = Day 77, osimertinib 3 mg/kg, qd
[45] = Day 81, osimertinib 3 mg/kg, qd
[46] = Day 84, osimertinib 3 mg/kg, qd
[47] = Day 88, osimertinib 3 mg/kg, qd
[48] = Day 91, osimertinib 3 mg/kg, qd
[49] = Day 95, osimertinib 3 mg/kg, qd
[50] = Day 100, osimertinib 3 mg/kg, qd

## COc1cc(-c2cnc(N)c(-c3ccc(NC(=O)c4cn(CC5CCOCC5)cc(-c5ccc(C)cn5)c4=O)cc3F)c2)ccc1OC[C@H]1COCCO1 [Compound A, N-[4-(2-amino-5-{4-[(2R)-1,4-dioxan-2-ylmethoxy]-3-methoxyphenyl}pyridin-3-yl)-3-fluorophenyl]-5-methyl-4′-oxo-1′-(tetrahydro-2H-pyran-4-ylmethyl)-1′,4′-dihydro-2,3′-bipyridine-5′-carboxamide sulfate hydrate]
HCC827 cells; [2]
  Mean estimated tumor volume: 269.0 mm^3
HCC827 cells; [3]
  Mean estimated tumor volume: 273.7 mm^3
HCC827 cells; [4]
  Mean estimated tumor volume: 279.7 mm^3
HCC827 cells; [5]
  Mean estimated tumor volume: 376.3 mm^3
HCC827 cells; [6]
  Mean estimated tumor volume: 366.6 mm^3
HCC827 cells; [7]
  Mean estimated tumor volume: 386.5 mm^3
HCC827 cells; [8]
  Mean estimated tumor volume: 446.8 mm^3
HCC827 cells; [9]
  Mean estimated tumor volume: 458.8 mm^3
HCC827 cells; [10]
  Mean estimated tumor volume: 468.3 mm^3
HCC827 cells; [11]
  Mean estimated tumor volume: 580.4 mm^3
HCC827 cells; [12]
  Mean estimated tumor volume: 550.8 mm^3
HCC827 cells; [13]
  Mean estimated tumor volume: 579.7 mm^3
HCC827 cells; [14]
  Mean estimated tumor volume: 647.2 mm^3
HCC827 cells; [15]
  Mean estimated tumor volume: 631.7 mm^3
HCC827 cells; [16]
  Mean estimated tumor volume: 676.8 mm^3
HCC827 cells; [17]
  Mean estimated tumor volume: 759.0 mm^3
HCC827 cells; [18]
  Mean estimated tumor volume: 718.2 mm^3
HCC827 cells; [19]
  Mean estimated tumor volume: 816.3 mm^3
HCC827 cells; [20]
  Mean estimated tumor volume: 835.6 mm^3
HCC827 cells; [21]
  Mean estimated tumor volume: 792.0 mm^3
HCC827 cells; [22]
  Mean estimated tumor volume: 856.2 mm^3
HCC827 cells; [23]
  Mean estimated tumor volume: 1013.6 mm^3
HCC827 cells; [24]
  Mean estimated tumor volume: 939.4 mm^3
HCC827 cells; [25]
  Mean estimated tumor volume: 1037.5 mm^3
HCC827 cells; [26]
  Mean estimated tumor volume: 1097.1 mm^3
[1]; [2]
  Mean change in body weight: 0.0%
[1]; [3]
  Mean change in body weight: 0.0%
[1]; [4]
  Mean change in body weight: 0.0%
[1]; [5]
  Mean change in body weight: 1.3%
[1]; [6]
  Mean change in body weight: 0.6%
[1]; [7]
  Mean change in body weight: 0.9%
[1]; [8]
  Mean change in body weight: 0.7%
[1]; [9]
  Mean change in body weight: 1.8%
[1]; [10]
  Mean change in body weight: 1.4%
[1]; [11]
  Mean change in body weight: 1.2%
[1]; [12]
  Mean change in body weight: 1.0%
[1]; [13]
  Mean change in body weight: 2.9%
[1]; [14]
  Mean change in body weight: 0.4%
[1]; [15]
  Mean change in body weight: 0.0%
[1]; [16]
  Mean change in body weight: 2.4%
[1]; [17]
  Mean change in body weight: 3.6%
[1]; [18]
  Mean change in body weight: 0.6%
[1]; [19]
  Mean change in body weight: 3.6%
[1]; [20]
  Mean change in body weight: 4.8%
[1]; [21]
  Mean change in body weight: 3.1%
[1]; [22]
  Mean change in body weight: 6.7%
[1]; [23]
  Mean change in body weight: 4.4%
[1]; [24]
  Mean change in body weight: 4.6%
[1]; [25]
  Mean change in body weight: 5.1%
[1]; [26]
  Mean change in body weight: 3.0%

## C=CC(=O)Nc1cc(Nc2nccc(-c3cn(C)c4ccccc34)n2)c(OC)cc1N(C)CCN(C)C [osimertinib, N-(2-{[2-(dimethylamino)ethyl](methyl)amino}-4-methoxy-5-{[4-(1-methyl-1H-indol-3-yl)pyrimidin-2-yl]amino}phenyl)propen-2-amide]
HCC827 cells; Day 0, osimertinib 3 mg/kg, qd
  Mean estimated tumor volume: 259.3 mm^3
HCC827 cells; Day 4, osimertinib 3 mg/kg, qd
  Mean estimated tumor volume: 93.1 mm^3
HCC827 cells; Day 7, osimertinib 3 mg/kg, qd
  Mean estimated tumor volume: 56.7 mm^3
HCC827 cells; [27]
  Mean estimated tumor volume: 38.7 mm^3
HCC827 cells; [28]
  Mean estimated tumor volume: 33.1 mm^3
HCC827 cells; [29]
  Mean estimated tumor volume: 30.9 mm^3
HCC827 cells; [30]
  Mean estimated tumor volume: 29.6 mm^3
HCC827 cells; [31]
  Mean estimated tumor volume: 32.0 mm^3
HCC827 cells; [32]
  Mean estimated tumor volume: 32.0 mm^3
HCC827 cells; [33]
  Mean estimated tumor volume: 35.5 mm^3
HCC827 cells; [34]
  Mean estimated tumor volume: 42.1 mm^3
HCC827 cells; [35]
  Mean estimated tumor volume: 44.9 mm^3
HCC827 cells; [36]
  Mean estimated tumor volume: 53.3 mm^3
HCC827 cells; [37]
  Mean estimated tumor volume: 63.7 mm^3
HCC827 cells; [38]
  Mean estimated tumor volume: 80.8 mm^3
HCC827 cells; [39]
  Mean estimated tumor volume: 92.4 mm^3
HCC827 cells; [40]
  Mean estimated tumor volume: 103.3 mm^3
HCC827 cells; [41]
  Mean estimated tumor volume: 134.1 mm^3
HCC827 cells; [42]
  Mean estimated tumor volume: 146.2 mm^3
HCC827 cells; [43]
  Mean estimated tumor volume: 182.1 mm^3
HCC827 cells; [44]
  Mean estimated tumor volume: 220.1 mm^3
HCC827 cells; [45]
  Mean estimated tumor volume: 285.7 mm^3
HCC827 cells; [46]
  Mean estimated tumor volume: 341.2 mm^3
HCC827 cells; [47]
  Mean estimated tumor volume: 404.1 mm^3
HCC827 cells; [48]
  Mean estimated tumor volume: 509.3 mm^3
HCC827 cells; [49]
  Mean estimated tumor volume: 602.4 mm^3
HCC827 cells; [50]
  Mean estimated tumor volume: 727.5 mm^3
HCC827 cells; mouse, in vivo, 3 mg/kg
  Day at which the tumor became bigger than its size at the start of administration (acquired resistance): 81 days
HCC827 cells; osimertinib administered alone, 3 mg/kg qd
  Effect on tumor immediately after administration: tumor regression effect
[1]; Day 0, osimertinib 3 mg/kg, qd
  Mean change in body weight: 0.0%
[1]; Day 4, osimertinib 3 mg/kg, qd
  Mean change in body weight: 0.1%
[1]; Day 7, osimertinib 3 mg/kg, qd
  Mean change in body weight: 1.0%
[1]; [27]
  Mean change in body weight: 0.3%
[1]; [28]
  Mean change in body weight: 1.1%
[1]; [29]
  Mean change in body weight: 0.9%
[1]; [30]
  Mean change in body weight: 2.7%
[1]; [31]
  Mean change in body weight: 2.6%
[1]; [32]
  Mean change in body weight: 1.1%
[1]; [33]
  Mean change in body weight: 2.0%
[1]; [34]
  Mean change in body weight: 3.1%
[1]; [35]
  Mean change in body weight: 4.0%
[1]; Day 42, osimertinib 3 mg/kg, qd
  Mean change in body weight: 3.2%
[1]; [36]
  Mean change in body weight: 4.5%
[1]; [37]
  Mean change in body weight: 5.0%
[1]; [38]
  Mean change in body weight: 5.1%
[1]; [39]
  Mean change in body weight: 5.3%
[1]; [40]
  Mean change in body weight: 5.4%
[1]; [41]
  Mean change in body weight: 5.7%
[1]; [42]
  Mean change in body weight: 6.4%
[1]; Day 70, osimertinib 3 mg/kg, qd
  Mean change in body weight: 5.7%
[1]; [43]
  Mean change in body weight: 7.4%
[1]; [44]
  Mean change in body weight: 6.6%
[1]; [45]
  Mean change in body weight: 8.9%
[1]; [46]
  Mean change in body weight: 8.0%
[1]; [47]
  Mean change in body weight: 8.8%
[1]; [48]
  Mean change in body weight: 9.6%
[1]; [49]
  Mean change in body weight: 11.7%
[1]; Day 98, osimertinib 3 mg/kg, qd
  Mean change in body weight: 11.2%
[1]; [50]
  Mean change in body weight: 11.9%
